According to patent publication US20130209515A1, “ANTI-INFECTIVE AND IMMUNOMODULATORY COMPOUNDS” (priority 2005, published 2013):
“Also recorded” adds a separate entry of the source.

Assays:
P. aeruginosa = P. aeruginosa growth kinetics (spectrophotometric analysis at 600 nm); format: cell-based, Pseudomonas aeruginosa; conditions: 2 mM compound, followed over 26 hours at 600 nm (FIG. 4)
Text: P. aeruginosa strains include wild-type (PA14, see Rahme et al., Science 268:1899-1902, 1995); a PA14 mvfR mutant (Cao et al., Proc. Natl. Acad. Sci. USA 98:14613-14618, 2001); a pqsE deletion mutant, generated via pEX18Ap allelic replacement by using sucrose selection (Hoang et al., Gene 212:77-86, 1998), resulting in a 570-bp nonpolar deletion covering 65% of the sequence (Déziel et al. PNAS); and the pqsA (U479) TnphoA mutant obtained from the PA14 Transposon Insertion Mutant Database. Bacteria were grown in LB broth or on 1.5% Bacto-agar (Difco) LB plates. Freshly plated cells served as inoculum.
P. aeruginosa was grown in the presence of 2 mM of 2′-aminoacetophenone (2AA), 3′-aminoacetophenone (3AA), 4′-aminoacetophenone (4AA), or 2′-nitroacetophenone (2NA), or in the absence of any of these compounds (control). Bacterial growth was followed over 26 hours by spectrophotometric analysis at 600 nm.
Bacterial growth was also followed over 35 hours by spectrophotometric analysis at 600 nm.

[1] = test system: 4-hydroxy-2-alkylquinoline (HAQ) production; format: cell-based, Pseudomonas aeruginosa
[2] = test system: pqsA-LacZ (MvfR-dependent pqs operon transcription); assay: pqsA-LacZ expression (β-galactosidase activity); format: cell-based, Pseudomonas aeruginosa
Procedure: To assess the effect of this compound on bacteria, we analyzed the production of HAQs in the presence of 2AA using LC/MS. The bacteria were propagated in the presence of 3 mM 2AA, culture media was collected at different time points, and the HHQ, PQS and HQNO production was measured in the supernatant. […] Since 2AA addition to the P. aeruginosa culture inhibits the production of HHQ and PQS, we assessed the transcription from the pqs operon using a pqsA-LacZ fusion.
To further, understand the mechanism of inhibition of the pqs operon by 2AA, we carried out competition assays of PQS and HHQ with 2AA. The expression of pqsA-LacZ in pqsApqsH double mutants was assessed. Bacteria were grown to an OD600 of 1.0 and HHQ and PQS were added either alone or with 2AA. LacZ expression was assayed at different stages of the growth, using standard protocols.
To determine whether HHQ activates MvfR expression, we generated a PA14pqsH/pqsA double mutant that lacks all HAQ production, and assessed pqsA-lacZ activity in the absence and presence of HHQ and PQS.

P. aeruginosa PA14 = assay: Mouse burn and infection (BI) model, survival; format: in vivo, mice
Procedure: Burn wound infection in mice can be established by subcutaneous or topical administration of the bacteria to the sites of the burn. […] Six-week old CD-1 male mice were used.
To induce infection, the mice were placed under general anesthesia via intraperitonial injection of 40 mg/kg Pentobarbital, the ventral surface was shaved, and a central skin fold elevated was simultaneously compressed from both sides for 5 seconds using two 2×2 cm metal blocks preheated to 95-100° C., to produce a non-lethal 5-8% full thickness burn with negligible focal necrosis of the underlying muscle or damage to underlying visceral organs. IP saline was administered for fluid resuscitation for ≧5% total body surface burns: avoiding vital structures, saline was injected into the left lower quadrant of the abdominal area of the anesthetized animal post-burn. This burn procedure was followed by mid-eschar inoculation of 100 μL of bacterial suspension containing ˜5×10^5 CFU. The animals were returned to their cages and provided mouse chow and water ad libitum. Animals typically recover from the anesthesia within 20 minutes post-administration. Criteria used to evaluate anesthesia recovery are state of alertness, mobility, and reaction to surrounding stimuli. Mice were monitored twice a day for symptoms and deaths, with increased monitoring every 6-8 hours during the period of greatest potential for infection and clinical disease.
The mouse full-thickness skin thermal injury infection model was used to test if 2AA restricts P, aeruginosa virulence. This model is predictable and reproducible; clinically relevant; and can lead to MODS and mortality. Briefly, a ˜15% total burn surface area (TBSA) thermal scalding injury is produced on the abdominal skin, leaving the underlying muscle intact, and the inoculum is delivered into the scald eschar. […]

PA14 = assay: Neonatal mouse lung infection model, lung histopathology; format: in vivo, mice
Procedure: We next assessed the morphological dynamics of PA14 infection in the presence of 2AA in a neonatal mouse lung infection model (Tang et al., Infection & Immunity 64:37-43, 1996), which is relevant to CF. A minimum inoculum of 1.5×10^5 PA14 cells/animal is 100% lethal in this model. Mice were treated with 2AA 4 days pre-infection, sacrificed at 24, 48, and 72 hr post-infection, and lung histopathology was assessed and compared to that of controls. PA14 infection alone produces rapidly developing inflammation that by 24 hr presents with red hepatization and development of lobular pneumonia. By 48 hours, the lung pathology includes most of the parenchyma with extensive formation of bacteria-filled necrotic foci (FIG. 12B). These observations are also consistent with our previous mortality studies using this lung model that indicate 100% mortality by 60 hr.

CC(=O)c1ccccc1N [2AA, 2′-aminoacetophenone]
Bacterial growth (P. aeruginosa): only slightly retarded | HHQ production [1]: no HHQ was produced | HQNO accumulation [1]: higher accumulation of HQNO | PQS production [1]: only a limited quantity of PQS was produced | production of 3,4-dihydroxy-2-heptylquinoline (PQS) [1]: decreased | production of 4-hydroxy-2-heptylquinoline (HHQ) [1]: decreased | production of 4-hydroxy-2-heptylquinoline N-oxide (HQNO) [1]: enhanced | LacZ expression from pqsA-LacZ fusion ([2]; PA14, 3 mM 2AA (FIG. 14)): significant reduction | pqsA expression (pqsA-LacZ) in response to HHQ ([2]; pqsApqsH double mutant, 3 mM 2AA with 1 mg/L HHQ): blocks pqsA expression | pqsA expression (pqsA-LacZ) in response to PQS ([2]; pqsApqsH double mutant, 3 mM 2AA with 10 μl PQS): blocks pqsA expression; also recorded: inhibits pqsA expression at later time points | protection (survival curves) (P. aeruginosa PA14; 10 mM solutions IV 4 days pre-BI (FIGS. 11A, 11B)): significantly greater | time to succumb to PA14 lethality (P. aeruginosa PA14; 2AA injected in the scald eschar 1 hr post BI (FIG. 7)): significantly later | survival (P. aeruginosa PA14; IP 2AA injection 3 days pre-BI): 50% | survival (P. aeruginosa PA14; IP 2AA injection 8 days pre-BI): 50% | mortality (P. aeruginosa PA14; IP 2AA injection up to 4 weeks pre-BI): 50% | mortality (P. aeruginosa PA14; IP 500 μl of 20 mM, 2 days pre-BI, controls ~90%): 60% | survival to PA14 infection (P. aeruginosa PA14; IV 100 μl of 10 mM, 4 days pre-BI): ~90% | average survival after 5 days (P. aeruginosa PA14; IV tail vein 100 μl of 10 mM, four days prior to burn/infection, n=8-10, control 10% (FIG. 9)): 50% | protection (survival) (P. aeruginosa PA14; single IP injection 500 μl of 20 mM, 6 hours pre-BI): no protection | development of lung inflammation in response to PA14 infection (PA14; 2AA 4 days pre-infection): greatly delayed rates of development of inflammation | lung histopathology (PA14; PA14 infection 4 days post-2AA treatment, 48 hours (FIG. 12C)): Slight peribronchial infiltrate of inflammatory cells is present at 48 hours but no significant interstitial involvement
